`CN1CCN(c2cccc3c2C[C@H](NC(=O)Cc2ccccc2)CC3)CC1` and `CN1CCC(CC(=O)N2c3ccccc3NC(=O)c3ccccc32)CC1` cannot be ordered by melting point: 151 to 152 °C for the first, greater than 95 °C for the second.

First: Cc1cc(C2=CCC(c3ccc(OCC4CO4)cc3)CC2)ccc1OCC1CO1 (stereo not given)
Second: Cc1nc(CCOc2ccc(CC3SC(=N)NC3=O)cc2)oc1-c1ccccc1 (stereo not given)
The melting point of the first is lower: 117 °C for the first, 194 to 195 °C for the second.

First: CCCCCCCCC#Cc1ccc2nc(C=O)ccc2c1
Second: CCCCCOc1ccc(C#CC2(O)CN3CCC2CC3)cc1 (stereo not given)
The melting point of the first is lower: 46.5 to 47.5 °C for the first, 153 to 154 °C for the second.

Compared with `CCCn1nc(C(C)C)c(C(=O)OC(C)OC(=O)OC2CCCCC2)c1Cc1ccc(-c2ccccc2-c2nnn[nH]2)cc1` (stereo not given), `COc1ccc(CCNC(=O)C(=O)NCc2ccncc2)cc1OC1CCCC1` is higher in melting point: 79 to 83 °C for the first, 129 to 131 °C for the second.

First: CC(C)(C)OC(=O)N1CCC[C@H]1COc1cccc2[nH]ncc12
Second: CC(C)(C)OC(=O)N1CCCC1C(=O)Nc1cccc(-c2cc(-c3ccccc3O)nc(NC(=O)c3cccs3)c2C#N)c1 (stereo not given)
The melting point of the first is lower: 125 °C for the first, 167 to 169 °C for the second.

First: CCC(CC)Oc1cc(C)nc2c1[nH]c(=O)n2-c1c(C)cc(C)cc1C
Second: Cc1c2c(c(C)c3c1NC(C)(C)C3)OC(C)(CN1CCC(N(C)c3nc4ccccc4s3)CC1)C2 (stereo not given)
The melting point of the first is higher: 184 to 186 °C for the first, 147 to 150 °C for the second.

Compared with `Cc1nnnn1CC(C)n1nnc2cc3c(=O)n(C4CC4)nnc3cc2c1=O` (stereo not given), `CCOC(=O)c1cn2c3c(cc(C)cc3c1=O)C1CCCCC12` (stereo not given) is lower in melting point: 208 to 211 °C for the first, 107 to 109 °C for the second.

Compared with `FC(F)c1cn(-c2c(Cl)cc(C(F)(F)F)cc2Cl)nc1C(F)(F)F`, `Oc1nc2cc(Cl)c3nc(C(F)(F)F)[nH]c3c2nc1O` is higher in melting point: 88 to 90 °C for the first, greater than 300 °C for the second.

First: O=C(CCC(=O)N1CCC[C@H]1C(=O)O)c1ccc(F)cc1
Second: C=C(CCC(=O)N1C(=O)OC[C@H]1c1ccccc1)c1ccc(F)cc1F
The melting point of the first is higher: 127 to 129 °C for the first, 50 to 55 °C for the second.

Compared with `Fc1cc(OCc2ccccc2)cnc1-c1ccccc1`, `C=Cc1ccc(OCc2ccccc2)cc1OCC(=O)c1ccc(OC)cc1` is lower in melting point: 105 to 106 °C for the first, 93 to 94 °C for the second.

Compared with `O=C(Nc1cccc(S(=O)(=O)NCc2ccccn2)c1)c1cnn2c(C(F)(F)F)cc(-c3ccc(C(F)(F)F)cc3)nc12`, `O=C(Nc1cc(OCCCO/N=C/c2ccc(C(F)(F)F)cc2)ccc1C(=O)O)c1ccc(C(F)(F)F)cc1` is lower in melting point: 229 °C for the first, 209 to 210 °C for the second.

First: COc1ccccc1N1CCN(CCn2c(=O)c3cscc3n(C)c2=O)CC1
Second: COc1ccc2nc(CN3CCN(c4ccc(Cl)cc4Cl)CC3)cn2c1
The melting point of the first is higher: 167 to 168 °C for the first, 130 °C for the second.

First: Cn1c(-c2ccc([N+](=O)[O-])cc2)cnc1[C@H](Cc1ccccn1)N(C=O)c1cc2cc(F)ccc2o1
Second: CN1C(=O)CN=C(c2ccccc2Cl)c2cc([N+](=O)[O-])ccc21
The melting point of the first is lower: 207 to 208 °C for the first, 220 °C for the second.

First: CCc1ccc2c(c1)NC(=O)C2=O
Second: CCOc1cc(C)ccc1S(N)(=O)=O
The melting point of the first is lower: 128 to 136 °C for the first, 136 to 137 °C for the second.

Compared with `CN1CCC(n2cc(C3=C(c4cn(C)c5ccccc45)C(=O)NC3=O)c3ccccc32)CC1`, `Cc1cccc(NC(=O)C2=C(O)c3ccc4ccccc4c3S(=O)(=O)N2C)n1` is lower in melting point: 316 to 318 °C for the first, 221 to 223 °C for the second.

Compared with `S=C1Nc2cccnc2Nc2cscc21`, `CCCOc1ccccc1-c1nc(C)cc(O)n1` is lower in melting point: 255 to 260 °C for the first, 109 to 110 °C for the second.

Compared with `Cc1ccc(C(=O)c2sc(Nc3ccc(S(N)(=O)=O)cc3)nc2N)c(C)c1`, `NS(=O)(=O)c1ccc(-c2cnn(C=C(F)C(F)F)c(=O)c2-c2ccc(F)cc2)cc1` is lower in melting point: 242 to 244 °C for the first, 190 to 193 °C for the second.

Compared with `CCOc1nc2cc(C)nn2c2ccncc12`, `CCOC(=O)c1cc(-c2ccncc2)c(C(F)(F)F)nc1N` is lower in melting point: 156 °C for the first, 121 to 125 °C for the second.

First: CC(C)c1ccc2nc3ccc(C(=O)O)cc3c(=O)n2c1
Second: CCOC(=O)c1c(NCc2ccccc2)nc2ccc(Br)cc2c1Cl
The melting point of the first is higher: 312 to 316 °C for the first, 163 to 165 °C for the second.

Compared with `O=c1[nH]c(=O)n(C2CC(OCc3ccccc3)C(COC(c3ccccc3)(c3ccccc3)c3ccccc3)O2)cc1F` (stereo not given), `O=C(NC(=S)N1CCC(=O)C(C(c2ccccc2)c2ccccc2)C1)c1ccccc1` (stereo not given) is higher in melting point: 138 to 139 °C for the first, 168 to 169 °C for the second.

First: COC(=O)c1cc(OC)c(OCc2ccccc2)c(OC)c1
Second: COC(=O)c1cc([N+](=O)[O-])ccc1-c1c(OC)cccc1OC
The melting point of the first is lower: 62 to 65 °C for the first, 157 °C for the second.

First: COc1ccnc(C(=O)N[C@H]2COC(=O)[C@H](Cc3ccccc3)[C@@H](OC(=O)C(C)C)[C@H](C)OC2=O)c1OCc1ccccc1
Second: O=C(O)C1Cc2c(ncn2CCc2ccccc2)CN1C(=O)Cc1ccccc1 (stereo not given)
The melting point of the first is lower: 169 to 170 °C for the first, 215 to 220 °C for the second.

Compared with `CC(=O)OCC1OC(n2ccc3c(F)cccc32)C(OC(C)=O)C(OC(C)=O)C1OC(C)=O` (stereo not given), `CC(=O)OCC1OC(n2c3ncccc3c3c4c(c5c6cccnc6[nH]c5c32)C(=O)N(CO)C4=O)C(OC(C)=O)C(OC(C)=O)C1OC(C)=O` (stereo not given) is higher in melting point: 132 to 135 °C for the first, greater than 300 °C for the second.

First: NS(=O)(=O)NC[C@H]1COc2cc(Cl)ccc2O1
Second: O=C(O)Cc1ccc(Cl)cc1OCCc1ccccc1
The melting point of the first is lower: 99 to 100 °C for the first, 102 to 104 °C for the second.

Compared with `O=C(O)CN(C(=O)OCc1ccccc1)c1ccc(O)cc1`, `COc1ccc(CC(NC(=O)OCc2ccccc2)C(=O)C=[N+]=[N-])cc1` (stereo not given) is lower in melting point: 196 to 198 °C for the first, 88 to 90 °C for the second.

`O=C(c1ccc([N+](=O)[O-])cc1)N1CCCCc2sc(Cl)c(Cl)c21` and `CCC1(CC(=O)O)CCCc2c1n(C)c1ccccc21` (stereo not given) cannot be ordered by melting point: 140 to 142 °C for the first, 140 to 143 °C for the second.

Compared with `CCCc1nn(CC)c2c(=O)[nH]c(C)nc12`, `CCOC(=O)c1nc2cnn(CC)c2nc1C` is lower in melting point: 211 to 213 °C for the first, 64 to 65 °C for the second.

First: O=C(O)C1(CSc2ccc3oc(-c4ccncc4)cc3c2)CCOCC1
Second: O=C(Nc1ccc(N2CCCC2)nc1)c1cc2cc(F)ccc2n1Cc1ccncc1
The melting point of the first is lower: 227 °C for the first, 255 to 257 °C for the second.

First: OCC(CO)Oc1ccc(I)cc1
Second: Cc1c(C(=O)O)sc2cncc(Oc3ccc(Cl)cc3)c12
The melting point of the first is lower: 90 °C for the first, 315 to 317 °C for the second.

First: CCCCc1ccc(N=C2NCCCN2)cc1
Second: COc1ccc(CCCS(=O)(=O)c2ccc(S(N)(=O)=O)s2)cc1
The melting point of the first is lower: 116 to 119 °C for the first, 136 to 138 °C for the second.

First: CCOC(=O)c1nnn[nH]1
Second: CCOC(=O)Cc1nnc(-c2ccccn2)[nH]c1=O
The melting point of the first is lower: 86 to 90 °C for the first, 136 to 137 °C for the second.

First: CC1c2cnc3ccc(O[Si](C)(C)C(C)(C)C)cc3c2C(CO[Si](C)(C)C(C)(C)C)C(O)C1O (stereo not given)
Second: COc1ccc(-n2c(SC)nc3cc(OC)cc(OC)c3c2=O)cc1
The melting point of the first is lower: 206 to 209 °C for the first, 212 to 215 °C for the second.

First: CC1(C)CCC(C)(C)c2cc(C(N)COc3ccc(C(=O)O)c(O)c3)ccc21 (stereo not given)
Second: Cc1c(C)c2c(c(C)c1OC(=O)CCC(=O)O)C(c1ccc(C(C)C)cc1)C(C)(C)O2 (stereo not given)
The melting point of the first is higher: 241 to 242 °C for the first, 141 to 142 °C for the second.

First: Cc1noc(NS(=O)(=O)c2ccccc2-c2cccnc2)c1C
Second: Cc1nn(C)c2c1c(=O)n(-c1ccccc1)c1ncccc21
The melting point of the first is lower: 147 to 150 °C for the first, greater than 300 °C for the second.

First: C=CCN1Cc2nc3c(cnn3CCC#CC)c(N)c2C1=O
Second: CN1C(=N)N(C)C(=Cc2c[nH]c3ccccc23)C1=O
The melting point of the first is lower: 192 to 194 °C for the first, 232 to 233 °C for the second.

First: CNC(=N[N+](=O)[O-])N(Cc1ccc(Cl)nc1)C(C)=O
Second: CC(=O)NC(C)(C(=O)NS(=O)(=O)c1ccc(C)cc1)C(C)C (stereo not given)
The melting point of the first is lower: 124 to 125 °C for the first, 198 to 199 °C for the second.

Compared with `Cc1ccnc(NCCCCC(=O)O)c1`, `CCOC(=O)CCCCN(C(=O)c1ccc(Cl)cc1)c1cccc2ccccc12` is lower in melting point: 138 to 140 °C for the first, 74 to 75 °C for the second.

Compared with `CCCc1cc(NCc2ccc(Cl)cc2)nc(SCC#N)n1`, `Oc1nsc(SCc2ccc(Cl)cc2Cl)n1` is higher in melting point: 68 to 70 °C for the first, 134 °C for the second.

First: Cc1cc(C#N)cc(CNc2c(NC(C)(C)C)c(=O)c2=O)c1
Second: CCOC(=O)C(C#N)=C1CCN(c2ccc(N3C[C@H](CNC(C)=O)OC3=O)cc2F)CC1
The melting point of the first is higher: 253 to 255 °C for the first, 165 to 169 °C for the second.

First: COc1ccccc1Sc1ccccc1C(=O)O
Second: COC(=O)C1(C)c2ccccc2Oc2ccccc21
The melting point of the first is higher: 198 to 200 °C for the first, 91 to 92 °C for the second.

First: O=Cc1cc2ccc3ccsc3c2c2ccccc12
Second: O=c1c2ccc(O)cc2oc2c1oc1c3ccccc3ccc21
The melting point of the first is lower: 173 to 177 °C for the first, greater than 300 °C for the second.

First: Cc1cc(-c2c(-c3ccccc3)nc3ccc(N4CCC5(CCCNC5)CC4)nn23)ccn1
Second: COC(=O)[C@H](Cc1ccc(NC(=S)NCCCc2ccccc2)cc1)NC(=O)[C@@H]1CCCN1S(=O)(=O)c1ccc(C)cc1
The melting point of the first is higher: 175 to 179 °C for the first, 74 to 80 °C for the second.

First: O=S(=O)(Nc1cc(Cl)cc(Cl)c1)c1cc(S(=O)(=O)Nc2cc(Cl)cc(Cl)c2)c2cc(O)ccc2c1
Second: O=C(NNS(=O)(=O)c1cccc(F)c1)c1ccc2oc3ccccc3c2c1
The melting point of the first is lower: 122 to 124 °C for the first, 223 °C for the second.

Compared with `CC1(C(=O)Nc2ccc(N3CCOC3=O)c(C(F)(F)F)c2)CC1`, `COc1ccc2c(c1)C13CCN(C#N)C(C2)C1CC(C)C(=O)C3` (stereo not given) is higher in melting point: 146 to 147 °C for the first, 188 to 192 °C for the second.

First: CCN(CC)CCNC(=O)c1cc(Cl)c(N)cc1OC(C)C(C)=NO (stereo not given)
Second: COC(=O)c1cc(Cl)c(OC)c(Cl)c1N
The melting point of the first is higher: 113 to 115 °C for the first, 72 to 73 °C for the second.

First: O=S1NC=Cc2ccccc21 (stereo not given)
Second: Ic1cnn(-c2cccnc2)c1
The melting point of the first is higher: 198 to 200 °C for the first, 145 to 146 °C for the second.

First: Cc1cc2nc(Cl)nc(Cl)c2s1
Second: CC(=O)NNC(=O)c1cc2cccc(NS(=O)(=O)c3cccs3)c2[nH]1
The melting point of the first is lower: 152 to 153 °C for the first, 254 to 256 °C for the second.

Compared with `c1cncc(C2CCCCS2)c1` (racemic), `O=C(O)c1c(Cc2cc3c(cc2Cl)OCO3)c(-c2ccsc2)nn1CC1CCCCC1` is higher in melting point: 49 °C for the first, 250 °C for the second.

First: Fc1ccc(C#Cc2nccs2)cc1
Second: O=C(NCCOc1ccc(CC(Oc2ccc(Cl)cc2)C(=O)O)cc1)c1ccc(-c2ccccn2)cc1 (stereo not given)
The melting point of the first is lower: 78 to 79 °C for the first, 155 to 156 °C for the second.

Compared with `COc1cc2c(c(C(C)C)c1OC)CC(C)C(Br)=C2` (stereo not given), `O=C(OC(c1ccccc1)c1ccccc1)C1=CCC2C1C(=O)C2(Cl)Cl` (stereo not given) is higher in melting point: 71 to 72 °C for the first, 96 to 97 °C for the second.
